Test results from ChEMBL document CHEMBL3351920, “Biased and unbiased strategies to identify biologically active small molecules” (Bioorg Med Chem, 2014).
Each block holds one compound with its values, some of them ahead of it.

What was measured:
[1] = Binding affinity to G-quadruplex RNA (unknown origin)
[2] = Binding affinity to double strand DNA (unknown origin)
[3] = Binding affinity to H-telo G-quadruplex DNA (unknown origin)
Acetylcholinesterase = Acetylcholinesterase (Homo sapiens, UniProt P22303); experiment: Inhibition of acetylcholine esterase (unknown origin)
Sequence of Acetylcholinesterase (P22303 whole entry): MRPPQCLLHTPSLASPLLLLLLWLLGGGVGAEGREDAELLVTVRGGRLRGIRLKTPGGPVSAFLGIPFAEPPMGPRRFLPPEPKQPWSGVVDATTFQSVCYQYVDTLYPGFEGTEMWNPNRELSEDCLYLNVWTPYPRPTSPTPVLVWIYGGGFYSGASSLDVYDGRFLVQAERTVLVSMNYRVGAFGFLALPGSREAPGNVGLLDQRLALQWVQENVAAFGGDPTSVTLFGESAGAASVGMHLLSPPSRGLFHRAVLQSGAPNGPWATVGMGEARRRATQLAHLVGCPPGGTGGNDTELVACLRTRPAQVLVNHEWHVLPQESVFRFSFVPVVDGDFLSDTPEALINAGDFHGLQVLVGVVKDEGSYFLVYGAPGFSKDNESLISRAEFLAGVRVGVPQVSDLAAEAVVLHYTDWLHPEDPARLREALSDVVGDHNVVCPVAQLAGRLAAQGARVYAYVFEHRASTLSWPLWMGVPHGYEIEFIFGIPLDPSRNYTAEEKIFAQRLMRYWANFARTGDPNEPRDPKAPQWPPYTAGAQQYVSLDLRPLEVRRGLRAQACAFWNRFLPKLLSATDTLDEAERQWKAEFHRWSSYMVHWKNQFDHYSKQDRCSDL

Bcl-2-like protein 10 = target: T1, Bcl-2-like protein 10 (Homo sapiens, UniProt Q9HD36); experiment: Binding affinity to Bcl-b (unknown origin)
T1 sequence (Q9HD36 whole entry): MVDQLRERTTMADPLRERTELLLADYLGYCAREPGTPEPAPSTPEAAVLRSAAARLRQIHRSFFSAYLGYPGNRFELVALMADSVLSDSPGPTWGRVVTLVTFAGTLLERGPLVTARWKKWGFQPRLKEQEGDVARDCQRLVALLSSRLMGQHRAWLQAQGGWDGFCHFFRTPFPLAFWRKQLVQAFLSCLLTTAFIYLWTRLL

Beta-casein = target: T2, Beta-casein (Bos taurus, UniProt P02666); experiment: Binding affinity to bovine beta-casein A1
T2 sequence (P02666 whole entry): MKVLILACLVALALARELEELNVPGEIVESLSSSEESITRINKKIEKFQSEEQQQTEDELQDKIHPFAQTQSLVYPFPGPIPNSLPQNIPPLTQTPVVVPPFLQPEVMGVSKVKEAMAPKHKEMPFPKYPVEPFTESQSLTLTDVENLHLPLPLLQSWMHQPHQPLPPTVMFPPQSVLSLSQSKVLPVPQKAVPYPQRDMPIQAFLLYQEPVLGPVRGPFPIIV

[4] = target: T3, Glutathione S-transferase Mu 1 (Mus musculus, UniProt P10649); experiment: Inhibition of mouse GSTM1-1
T3 sequence (P10649 whole entry): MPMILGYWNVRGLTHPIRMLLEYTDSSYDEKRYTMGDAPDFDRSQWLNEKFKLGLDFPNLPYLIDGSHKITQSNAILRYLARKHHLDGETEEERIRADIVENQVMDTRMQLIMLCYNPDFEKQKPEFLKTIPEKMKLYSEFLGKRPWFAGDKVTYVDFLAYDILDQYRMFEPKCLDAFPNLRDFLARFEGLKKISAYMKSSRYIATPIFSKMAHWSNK

[5] = target: Cyclin-dependent kinase 1 (Homo sapiens, UniProt P06493); experiment: Inhibition of CDK1 (unknown origin)
Sequence of Cyclin-dependent kinase 1 (P06493 whole entry): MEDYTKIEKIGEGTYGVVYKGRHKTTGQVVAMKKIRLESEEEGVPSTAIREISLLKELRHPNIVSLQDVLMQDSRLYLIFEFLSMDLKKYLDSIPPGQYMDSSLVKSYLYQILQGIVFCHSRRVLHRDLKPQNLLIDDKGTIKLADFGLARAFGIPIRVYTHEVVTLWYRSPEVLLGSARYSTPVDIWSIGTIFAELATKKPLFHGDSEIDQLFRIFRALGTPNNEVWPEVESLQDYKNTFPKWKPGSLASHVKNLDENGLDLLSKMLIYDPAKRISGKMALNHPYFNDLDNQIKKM

[6] = target: RAC-alpha serine/threonine-protein kinase (Homo sapiens, UniProt P31749); experiment: Inhibition of Akt1 (unknown origin)
Sequence of RAC-alpha serine/threonine-protein kinase (P31749 whole entry): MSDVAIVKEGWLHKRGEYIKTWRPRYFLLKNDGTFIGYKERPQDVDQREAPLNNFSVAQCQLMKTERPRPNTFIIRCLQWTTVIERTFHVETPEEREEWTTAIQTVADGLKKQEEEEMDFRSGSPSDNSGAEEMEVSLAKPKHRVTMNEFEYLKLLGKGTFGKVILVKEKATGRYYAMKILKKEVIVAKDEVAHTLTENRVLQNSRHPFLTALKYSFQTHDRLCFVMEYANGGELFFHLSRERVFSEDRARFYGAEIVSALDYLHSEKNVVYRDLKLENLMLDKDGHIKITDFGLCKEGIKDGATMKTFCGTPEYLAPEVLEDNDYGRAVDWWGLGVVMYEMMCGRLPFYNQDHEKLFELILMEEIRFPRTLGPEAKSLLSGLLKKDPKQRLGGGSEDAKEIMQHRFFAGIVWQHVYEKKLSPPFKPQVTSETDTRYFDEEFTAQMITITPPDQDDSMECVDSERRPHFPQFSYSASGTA

[7] = Inhibition of CUG-RNA/MBLN1 (unknown origin) interaction

deltaTm [1]: 20.7 K
SMILES: NCCOc1cc(NC(=O)c2cc(OCc3cn(CCC(=O)O)nn3)cc(C(=O)Nc3cc(OCCN)c4ccccc4n3)n2)nc2ccccc12

deltaTm [2]: 0 K
deltaTm [3]: 30 K
SMILES: NCCOc1cc(NC(=O)c2cc(OCc3cn([C@H]4O[C@H](CO)[C@@H](O)[C@H](O)[C@H]4O)nn3)cc(C(=O)Nc3cc(OCCN)c4ccccc4n3)n2)nc2ccccc12

Ki (Bcl-2-like protein 10): > 1 nM
Ki (Beta-casein): > 1 nM
SMILES: CN(C)CC[C@H](CSc1ccccc1)Nc1ccc(S(=O)(=O)NC(=O)c2ccc(N3CCN(Cc4ccccc4-c4ccc(Cl)cc4)CC3)cc2)cc1[N+](=O)[O-] [ABT 737]

IC50 [4]: 50 nM
SMILES: C[C@H](NC(=O)c1cccc(C(=O)N[C@@H](C)C(=O)N/N=C/c2ccc(SC[C@H](NC(=O)CC[C@H](N)C(=O)O)C(=O)NCC(=O)O)c([N+](=O)[O-])c2)c1)C(=O)N/N=C/c1ccc(SC[C@H](NC(=O)CC[C@H](N)C(=O)O)C(=O)NCC(=O)O)c([N+](=O)[O-])c1

Ki [7]: 3.6 µM
SMILES: CCc1nc2ccccc2cc1C(=O)N1CCC[C@H]1C(=O)N[C@H](CSSC[C@@H](NC(=O)[C@@H]1CCCN1C(=O)c1cc2ccccc2nc1CC)C(=O)N[C@@H](CCCCN)C(=O)NCCCN)C(=O)N[C@@H](CCCCN)C(=O)NCCCN

Second part, the compound before the results:

SMILES: C[N+](C)(C)CCCCCCCCCC[N+](C)(C)C [DECAMETHONIUM BROMIDE]
IC50 (Acetylcholinesterase): 1000 nM

SMILES: O=C(C[n+]1ccccc1)N/N=C/c1ccc(/C=N/NC(=O)C[n+]2ccccc2)cc1
IC50 (Acetylcholinesterase): 2.3 nM

SMILES: c1ccc2[nH]c(-c3cc[nH]n3)nc2c1
IC50 [5]: 28 µM

SMILES: CC[C@H](C)[C@H](NC(=O)[C@H](CCCNC(=N)N)NC(=O)[C@H](CCC(=O)O)NC(=O)[C@H](Cc1cnc[nH]1)NC(=O)[C@H](CCCNC(=N)N)NC(=O)C(CCCCCCCCn1cc(CCCC(=O)NC(CCCCCCCCn2cc(C[C@H](NC(C)=O)C(=O)N[C@@H](Cc3ccccc3)C(=O)N[C@@H](Cc3c[nH]c4ccccc34)C(=O)N[C@@H](Cc3ccccc3)C(=O)N[C@@H](CC(C)C)C(=O)N[C@@H](CCCNC(=N)N)C(=O)NCC(N)=O)nn2)C(=O)N[C@H](C(=O)N[C@@H](Cc2ccccc2)C(=O)N[C@@H](Cc2ccc(O)cc2)C(=O)N[C@@H](CCCNC(=N)N)C(=O)N[C@@H](CC(C)C)C(=O)NCC(=O)N[C@@H](Cc2ccc(O)cc2)C(=O)NCCNC(=O)CCCC[C@H]2SC[C@H]3NC(=O)N[C@H]32)C(C)C)nn1)NC(C)=O)C(N)=O (stereo partly drawn)
Kd [6]: 200 nM

SMILES: O=C(Nc1cc(OCCN2CCCC2)c2ccccc2n1)c1cc(OCc2cn([C@H]3O[C@H](CO)[C@@H](O)[C@H](O)[C@H]3O)nn2)cc(C(=O)Nc2cc(OCCN3CCCC3)c3ccccc3n2)n1
deltaTm [2]: 0.1 K
deltaTm [3]: 28 K
